# Measured values as given in patent publication US12686657B2, “Anti-inflammatory carboxamide derivatives” (BIOMEDCODE HELLAS SA, priority 2021, dated 2026).
# Columns and labels:
# [1] = test system: hTNFtg SFs; experiment: Wound healing assay on activated SFs; format: cell-based, mice; settings: compound 10 μM, 24 h
# Description: Activated SFs were isolated from hTNFtg mice as described above and they were seeded in 24 well plates at a concentration of 2×10^5 cells/well. The next day a straight-line wound was created on the formed cell monolayer using the tip of a 200 μl pipette. Images of the wounds were captured by microscope at a magnification of 4× at two time points. Time point 0 (i.e. the time of the creation of the wound) as well as 24 h later (t=24 h). The area of the wound was measured at each time point using the software ImageJ.
# The percent closure of the wound was calculated using the following formula: [(wound area at t0−wound area at t24)/wound area at t0]*100
# The assay for each compound was repeated four times.
# The inventors wanted to further explore the potential of the test compounds to reduce the activated phenotype of the arthritogenic SFs and studied their effect on a wound healing assay. In this assay a wound is formed on a monolayer of SFs and the rate of closure of this wound is indicative of the proliferation and migration capacity of the SFs, i.e. the slower the closure of the wound, the less proliferative and migratory are the SFs.
# The potential ability of the compounds 53, E and F to inhibit the proliferation and migration of activated SFs, was assessed at a concentration of 10 μM and the wound healing assay was performed using hTNFtg SFs, as these cells show increased proliferation and migration potential (Vasilopoulos et al., 2007). The data shown in Table 10 where the percentages of wound closure area are presented in hTNFtg untreated as well as compound treated cells.
# [2] = test system: LPS activated thioglyclolate peritoneal macrophages; experiment: Cytokines and chemokines secreted from LPS activated thioglycolate peritoneal macrophages (Legendplex panels); format: cell-based, mice; settings: for CCL5 level, percentage of untreated control cells / IL6 level, percentage of untreated control cells / MCP1 level, percentage of untreated control cells / MDC level, percentage of untreated control cells / MIP1α level, percentage of untreated control cells / MIP1β level, percentage of untreated control cells / GMCSF level, percentage of untreated control cells / IL1α level, percentage of untreated control cells / IL12p70 level, percentage of untreated control cells / IL27 level, percentage of untreated control cells: 10 μM compound, 48 h; for IC50: Mus musculus, Peritoneal macrophage, read-out: IL6 IC50
# Description: Activated peritoneal macrophages were isolated from the peritoneal lavage of C57BL/6 wild type mice, 5 days after the peritoneal administration of 3% Thioglucolate, as described in Jiménez-García et al., 2015. The isolated cells were seeded at a concentration of 5×10^5 cells/well in a 48 well plate. 4 h after isolation, cells were starved O/N in Optimem (Gibco, 11058, 100 U/ml P/S). The cells were further activated with 100 ng/ml Lipopolysaccharide (LPS, Sigma-Aldrich, L2630) along with the test compounds at a dose of 10 μM. 48 h later the supernatants of the cell cultures were collected and analyzed using the Mouse 13 plex Legendplex Chemokine (Biolegend, 740007) and Cytokine (Bioloegend, 740446) panels according the manufacturer's instructions.
# The same protocol was repeated reducing the concentration of LPS to 10 ng/ml in order to determine the efficiency of the tested compounds.
# In order to assess the anti-inflammatory activity of the compounds of the invention, their ability to reduce the levels of secreted cytokines and chemokines from activated macrophages, which are key inflammatory cells of the immune system, was measured. Test compounds 51, 52 and 53, E and F were tested at a dose of 10 μM on LPS induced thioglycolate derived peritoneal macrophages. Chemokine and cytokine analyses were performed using the Mouse pro-inflammatory panels from Legendplex and their levels are presented as a percentage of the levels detected in the untreated control cells (Tables 6a and 6b). Data presented for compounds 51, 52, 53 refer to LPS stimulation of 100 ng/ml, while compounds E and F were tested upon LPS stimulation of 10 ng/ml.
# [3] = test system: C57BL/6J mice; experiment: In vivo LPS acute systemic inflammation model, serum cytokines and chemokines (Legendplex); set-up: key to IL-1β in sera, Average / IL-17A in sera, Average / IL-27 in sera, Average / GM-CSF in sera, Average / KC in sera, Average / MCP1 in sera, Average / IP-10 in sera, Average / MIP-1A in sera, Average / MIP-1B in sera, Average / MDC in sera, Average / IL-23 in sera, Average / TNF-α in sera, Average: serum concentration in pg/ml; IL12p70 in sera, Average / IFN-γ in sera, Average: unit: pg/ml; settings: 1 μg LPS i.p.
# Description: In order to evaluate in vivo the anti-inflammatory effect of the test compounds a model of in vivo LPS acute systemic inflammation was used where C57BL/6J mice were challenged by administration of 1 μg LPS. Each one of the compounds 51 to 53 was administered to C57BL/6J mice per os in two doses of 50 mg. Two hours after administering the first dose, the animals received the second p.o. dose of each compound and were also challenged with 1 μg LPS intraperitoneally. Sera samples were collected 1.5 hrs post induction in order to measure the levels of 13 cytokines using the pro-inflammatory panel from Legendplex (cat no 740446) and following manufacturer's instructions. Four biological replicates were performed and the average and SEM were calculated with the obtained results.
# The same protocol was followed but administering compound 53 at 100 mg/kg. In this case both the levels of the 13 cytokines but also of 13 chemokines were measured, using the pro-inflammatory panel from Legendplex (cat no 740007).
# The anti-inflammatory effect of the test compounds 51, 52 and 53 was assessed in vivo in the LPS model of acute inflammation. Administration of the endotoxin Lipopolysaccharide (LPS) to mice induces acute inflammatory responses similar to the inflammatory response that occurs during the early stages of septic shock. Shortly after administration of the endotoxin, cytokines and chemokines are released. This model is fast, cost-effective and widely used for screening of anti-inflammatory properties of test items aimed for treatment of a number of inflammatory and autoimmune conditions (Seemann et al., 2017; Stortz et al., 2017).
# Sera samples from the treated mice with the 50 mg/Kg doses of the test compounds 51-53 were evaluated using the mouse pro-inflammatory panel of Legendplex and the data acquired are presented as pg/ml in Table 11. Vehicle, 52 and 53 were tested in quadruplicates (vehicle_1-4), 51 in triplicate (51_1-3).
# Sera samples from the treated mice with test compounds 53 with 100 mg/Kg were also evaluated using the mouse pro-inflammatory cytokine and chemokine panel of Legendplex and the effect of compound 53 at a higher dose (100 mg/kg) in inhibiting inflammatory cytokines and chemokines is presented in the Table 12 below.
# [4] = 50 mg/Kg per os, two doses, sera 1.5 hrs post induction
Structure (SMILES),% of wound closure (mean ± SD) [1] [%],"CCL5 level, percentage of untreated control cells ([2]; LPS 10 ng/ml) [%]","IL6 level, percentage of untreated control cells ([2]; LPS 10 ng/ml) [%]","MCP1 level, percentage of untreated control cells ([2]; LPS 10 ng/ml) [%]","MDC level, percentage of untreated control cells ([2]; LPS 10 ng/ml) [%]","MIP1α level, percentage of untreated control cells ([2]; LPS 10 ng/ml) [%]","MIP1β level, percentage of untreated control cells ([2]; LPS 10 ng/ml) [%]","IL-1α in sera, Average [3, 4] [pg/mL]","IL-1β in sera, Average [3, 4] [pg/mL]","IL-6 in sera, Average [3, 4] [pg/mL]","IL-10 in sera, Average [3, 4] [pg/mL]","IL-17A in sera, Average [3, 4] [pg/mL]","MCP-1 in sera, Average [3, 4] [pg/mL]","GMCSF level, percentage of untreated control cells ([2]; LPS 100 ng/ml) [%]","IL1α level, percentage of untreated control cells ([2]; LPS 100 ng/ml) [%]","IL6 level, percentage of untreated control cells ([2]; LPS 100 ng/ml) [%]","IL12p70 level, percentage of untreated control cells ([2]; LPS 100 ng/ml) [%]","IL27 level, percentage of untreated control cells ([2]; LPS 100 ng/ml) [%]","MCP1 level, percentage of untreated control cells ([2]; LPS 100 ng/ml) [%]","MIP1β level, percentage of untreated control cells ([2]; LPS 100 ng/ml) [%]",further results
"COc1cc(N)c(Cl)cc1C(=O)NCC1(Nc2cccc(OC(F)(F)F)c2)CCCCCC1 [F, 4-amino-5-chloro-2-methoxy-N-((1-((3-(trifluoromethoxy)phenyl)amino)cycloheptyl)methyl)benzamide]",63 ± 11.8,2,5.3,9,47,45,26,–,–,–,–,–,–,–,–,–,–,–,–,–,IC50 ([2]; LPS 10 ng/ml): 2670 nM
"COc1cc(N)c(Cl)cc1C(=O)NCC1(Nc2ccc(F)cc2Cl)CCCCCC1 [E, 4-amino-5-chloro-N-((1-((2-chloro-4-fluorophenyl)amino)cycloheptyl)methyl)-2-methoxybenzamide]",73 ± 31.5,8,8.8,9.3,54,50,41,–,–,–,–,–,–,–,–,–,–,–,–,–,IC50 ([2]; LPS 10 ng/ml): 570 nM
"COc1cc(N)c(Cl)cc1C(=O)NCC1(Nc2ccc(Cl)cc2)CCCCCC1 [Compound 53, 4-amino-5-chloro-N-((1-((4-chlorophenyl)amino)cycloheptyl)methyl)-2-methoxybenzamide]",67.7 ± 16.2,–,–,–,–,–,–,67.3,113.1,5145,2616.1,55.1,5149,38,30,15,18,75,75,67,"GM-CSF in sera, Average ([3]; 100 mg/kg p.o.): 9.8; IFN-γ in sera, Average ([3]; 100 mg/kg p.o.): 6.7; IL12p70 in sera, Average ([3]; 100 mg/kg p.o.): 5.7; IL-1β in sera, Average ([3]; 100 mg/kg p.o.): 12.4; IL-17A in sera, Average ([3]; 100 mg/kg p.o.): 3.7; IL-23 in sera, Average ([3]; 100 mg/kg p.o.): 16.6; IL-27 in sera, Average ([3]; 100 mg/kg p.o.): 16.1; IP-10 in sera, Average ([3]; 100 mg/kg p.o.): 45.2; KC in sera, Average ([3]; 100 mg/kg p.o.): 4227.5; MCP1 in sera, Average ([3]; 100 mg/kg p.o.): 1246.2; MDC in sera, Average ([3]; 100 mg/kg p.o.): 56.6; MIP-1A in sera, Average ([3]; 100 mg/kg p.o.): 244.3; MIP-1B in sera, Average ([3]; 100 mg/kg p.o.): 1301.1; TNF-α in sera, Average ([3]; 100 mg/kg p.o.): 136.8; CCL5 level, percentage of untreated control cells ([2]; LPS 100 ng/ml): 22%; MDC level, percentage of untreated control cells ([2]; LPS 100 ng/ml): 52%; MIP1α level, percentage of untreated control cells ([2]; LPS 100 ng/ml): 60%"
"COc1cc(N)c(Cl)cc1C(=O)NCC1(c2ccc(Cl)cc2)CCCCCC1 [Compound 52, 4-amino-5-chloro-N-((1-(4-chlorophenyl)cycloheptyl)methyl)-2-methoxybenzamide]",–,–,–,–,–,–,–,43.1,118.5,3988.8,1692.2,27.7,4916.5,36,9,7,23,19,28,51,–
"COc1cc(N)c(Cl)cc1C(=O)NCC1(c2ccc(Cl)cc2)CCCCC1 [Compound 51, 4-amino-5-chloro-N-((1-(4-chlorophenyl)cyclohexyl)methyl)-2-methoxybenzamide]",–,–,–,–,–,–,–,27.4,87.0,4702.5,1774.5,43.8,4689.1,80,36,44,54,77,27,90,–
